In US10004701B2, “Methods and compositions for treating infection” (UNIVERSITY OF ROCHESTER, priority 2012, dated 2018):
pIC50: −log10 of the molar value. ≈ marks a conversion by molar mass, not a printed value. Read-outs that look alike come from different tables or passages of the source.

Columns and labels:
[1] = tested on: Enterococcus faecium 824-05; assay: MIC testing; type: cell-based; conditions: 82405; Enterococcus faecium 824-05; read-out: MIC
E. faecium = assay: AK assay 384-well format, Prestwick library screening; type: cell-based, Enterococcus faecium; conditions: E. faecium; 50 μM, cutoff 3-fold increase in AK
S. aureus = assay: Minimum Inhibitory Concentration (MIC) testing, terfenadine study; type: cell-based; conditions: Staphylococcus aureus, 16 h
S. aureus DNA gyrase = target: T1, S. aureus DNA gyrase (Staphylococcus aureus, UniProt P0A0K8+P20831); assay: S. aureus DNA gyrase supercoiling assay (TopoGEN); type: biochemical
T1 construct: purchased TopoGEN
Description: Reactions were incubated at 37° C. for 30 min and then stopped by the addition of 10% SDS, filtered through 0.025 μm Millipore membrane filters in a 10 mM Tris-HCl buffer (pH 8), and electrophoresed in a 1% agarose TAE gel. Gels were stained with 0.5 μg/ml ethidium bromide and images were analyzed using densitometry (Image J, NIH).

MIC [1] [µg/mL]	SMILES	activity in AK Prestwick screen (E. faecium)	MIC (S. aureus) [µg/mL]	pIC50 (S. aureus DNA gyrase)	MIC (S. aureus; S. aureus, MHB, strain not given, read-out: MIC) [µg/mL]
8 (≈ 19.7 µM)	CCN(CC)CCOc1ccc(C(=C(Cl)c2ccccc2)c2ccccc2)cc1 [Clomiphene, clomiphene, reference compound]	identified			
	CC(C)(C)c1ccc(C(=O)N2CCC(C(O)(c3ccccc3)c3ccccc3)CC2)cc1 [Compound 27, (4-(tert-butyl)phenyl)(4-(hydroxydiphenylmethyl)piperidin-1-yl)methanone]		> 256	3.66	
	COc1ccc(CCN2CCC(C(O)(c3ccccc3)c3ccccc3)CC2)cc1 [Compound 28, (1-(4-methoxyphenethyl)piperidin-4-yl)diphenylmethanol]		256 (≈ 638 µM)	< 3.08	
	O=[N+]([O-])c1ccc(CCN2CCC(C(O)(c3ccccc3)c3ccccc3)CC2)cc1 [Compound 29, (1-(4-nitrophenethyl)piperidin-4-yl)diphenylmethanol]		64 (≈ 154 µM)	3.20	
	OC(c1ccccc1)(c1ccccc1)C1CCN(CCc2ccc(Br)cc2)CC1 [Compound 30, (1-(4-bromophenethyl)piperidin-4-yl)diphenylmethanol]		16 (≈ 35.5 µM)	3.26	
	OC(c1ccccc1)(c1ccccc1)C1CCN(CCc2ccc(-c3ccccc3)cc2)CC1 [Compound 32, (1-(2-([1,1′-biphenyl]-4-yl)ethyl)piperidin-4-yl)diphenylmethanol]			3.75	8 (≈ 17.9 µM)
	OC(c1ccccc1)(c1ccccc1)C1CCN(CCc2ccc(-c3ccncc3)cc2)CC1 [Compound 33, Diphenyl(1-(4-(pyridin-4-yl)phenethyl)piperidin-4-yl)methanol]		32 (≈ 71.3 µM)	3.68	
	Nc1ccc(CCN2CCC(C(O)(c3ccccc3)c3ccccc3)CC2)cc1 [Compound 34, (1-(4-aminophenethyl)piperidin-4-yl)diphenylmethanol]		256 (≈ 662 µM)	3.62	
	OC(c1ccccc1)(c1ccccc1)C1CCN(CCc2ccc(-c3cccnc3)cc2)CC1 [Compound 35, Diphenyl(1-(4-(pyridin-3-yl)phenethyl)piperidin-4-yl)methanol]		32 (≈ 71.3 µM)	3.25	
	CN(C)c1ccc(CCN2CCC(C(O)(c3ccccc3)c3ccccc3)CC2)cc1 [Compound 36, (1-(4-(Dimethylamino)phenethyl)piperidin-4-yl)diphenylmethanol]		256 (≈ 617 µM)	< 3.10	
	OC(c1ccccc1)(c1ccccc1)C1CCN(CCc2ccc(F)cc2)CC1 [Compound 38, (1-(4-Fluorophenethyl)piperidin-4-yl)diphenylmethanol]		128 (≈ 329 µM)	< 3.07	
	CC(C)(C)c1cccc(CCN2CCC(C(O)(c3ccccc3)c3ccccc3)CC2)c1 [Compound 39, (1-(3-(Tert-butyl)phenethyl)piperidin-4-yl)diphenylmethanol]		16 (≈ 37.4 µM)	3.66	
	CC(C)(C)c1ccc(C(O)CCCN2CCC(Cc3ccccc3)CC2)cc1 (centres unmarked) [Compound 40, 4-(4-Benzylpiperidin-1-yl)-1-(4-(tert-butyl)phenyl)butan-1-ol]		64 (≈ 169 µM)	< 3.06	
	CC(C)(C)c1ccc(NCCCN2CCC(C(O)(c3ccccc3)c3ccccc3)CC2)cc1 [Compound 41, (1-(3-((4-(Tert-butyl)phenyl)amino)propyl)piperidin-4-yl)diphenylmethanol]		8 (≈ 17.5 µM)	3.37	
	CC(C)(C)c1ccc(CCN2CCC(C(O)(c3ccccc3)c3ccccc3)CC2)cn1 [Compound 43, (1-(2-(6-(Tert-butyl)pyridin-3-yl)ethyl)piperidin-4-yl)diphenylmethanol]		64 (≈ 149 µM)	< 3.11	
	OC(c1ccccc1)(c1ccccc1)C1CCN(CCc2ccc(Cl)cc2)CC1 [Compound 44, (1-(4-Chlorophenethyl)piperidin-4-yl)diphenylmethanol]		32 (≈ 78.8 µM)	3.19	
